Earlier results, collected in patent US4803081A, “New pharmaceutical preparations with extended release” (Aktiebolaget Hassle, priority 1986, dated 1989).
Converted amounts (≈) assume the structure as drawn. Read-outs that look alike come from different tables or passages of the source.

Settings: for solubility (in words): very low = less than 0.1 per cent by weight in water

Row | solubility (in words) | solubility (in words) (listed as Felodipine) | solubility in water (water) [µg/mL] | SMILES
1 | very low solubility | – | – | COC1=CC(=O)C[C@@H](C)[C@]12Oc1c(Cl)c(OC)cc(OC)c1C2=O [griseofulvin]
2 | very low solubility | practically insoluble | 0.5 (≈ 1.3 µM) | CCOC(=O)C1=C(C)NC(C)=C(C(=O)OC)C1c1cccc(Cl)c1Cl (centres unmarked) [felodipine, 4-(2,3-dichlorophenyl)-1,4-dihydro-2,6-dimethyl-3,5-pyridinedicarboxylic acid ethyl methyl ester]

Row | SMILES | solubility (in words) | solubility (in words) (listed as Felodipine) | solubility in water (water) [µg/mL]
3 | O=C1NC(=O)C(c2ccccc2)(c2ccccc2)N1 [phenytoin] | very low solubility | – | –
